According to PubChem BioAssay (NCI):
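Growth conditions: 96-well plates. Treatment: test compound, 48 hours, 5 concentrations. Analysis: linear interpolation between bracketing concentrations; unreached endpoints set to highest concentration. TGI: total growth inhibition.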

How the values were obtained:
Test in all cases: DTP human tumour cell line panel, 48 h
[1] = tested on: 786-0 renal
[2] = tested on: BT-549 breast
[3] = tested on: CAKI-1 renal
[4] = tested on: CCRF-CEM leukemia
[5] = tested on: DU-145 prostate
[6] = tested on: HL-60(TB) leukemia
[7] = tested on: MDA-MB-231 breast
[8] = tested on: MDA-MB-435
[9] = tested on: MDA-N
[10] = tested on: NCI-H23 lung
[11] = tested on: OVCAR-3 ovarian
[12] = tested on: OVCAR-4 ovarian
[13] = tested on: PC-3 prostate
[14] = tested on: RXF 393 renal
[15] = tested on: SF-268 CNS
[16] = tested on: SF-295 CNS
[17] = tested on: SF-539 CNS
[18] = tested on: SK-MEL-28 melanoma
[19] = tested on: SK-MEL-5 melanoma
[20] = tested on: SW-620 colon

SMILES: O=[N+]([O-])c1ccc(/C=N/n2c(CO)nc3ccccc32)o1
- TGI [1]: 17.9 µM
- TGI [2]: 27.6 µM
- TGI [3]: 24.8 µM
- TGI [4]: 36.8 µM
- TGI [5]: 13.9 µM
- TGI [6]: 9.41 µM
- TGI [7]: 20.6 µM
- TGI [8]: 13.9 µM
- TGI [9]: 13.3 µM
- TGI [10]: 20 µM
- TGI [11]: 6.91 µM
- TGI [12]: 21.8 µM
- TGI [13]: 26.1 µM
- TGI [14]: 18.3 µM
- TGI [15]: 22.7 µM
- TGI [16]: 25.2 µM
- TGI [17]: 55 µM
- TGI [18]: 12.6 µM
- TGI [19]: 6.78 µM
- TGI [20]: 29.1 µM

SMILES: CCOC(CCNCC(OCC)OCC)OCC
- TGI [1]: > 10 µM
- TGI [2]: > 10 µM
- TGI [3]: > 10 µM
- TGI [4]: > 10 µM
- TGI [5]: > 10 µM
- TGI [6]: > 10 µM
- TGI [7]: > 10 µM
- TGI [8]: > 10 µM
- TGI [9]: > 10 µM
- TGI [10]: > 10 µM
- TGI [11]: > 10 µM
- TGI [12]: > 10 µM
- TGI [13]: > 10 µM
- TGI [14]: > 10 µM
- TGI [15]: > 10 µM
- TGI [16]: > 10 µM
- TGI [17]: > 10 µM
- TGI [18]: > 10 µM
- TGI [19]: > 10 µM

SMILES: N#CSC#Cc1ccc(C#CSC#N)cc1
- TGI [1]: 33.5 µM
- TGI [2]: 32.4 µM
- TGI [3]: 31.6 µM
- TGI [4]: > 100 µM
- TGI [5]: 28.3 µM
- TGI [6]: > 100 µM
- TGI [7]: 35.2 µM
- TGI [8]: 45.4 µM
- TGI [9]: 34.5 µM
- TGI [10]: 35.5 µM
- TGI [11]: 39.7 µM
- TGI [12]: 36 µM
- TGI [13]: 29.5 µM
- TGI [14]: 35.7 µM
- TGI [15]: 51.7 µM
- TGI [16]: 43.4 µM
- TGI [17]: 43.3 µM
- TGI [18]: 57.2 µM
- TGI [19]: 33.2 µM
- TGI [20]: 44.1 µM

SMILES: COc1ccc(C(C)NNC(=O)c2ccncc2)c(OC)c1 (stereo unspecified)
- TGI [1]: > 100 µM
- TGI [2]: > 100 µM
- TGI [3]: > 100 µM
- TGI [4]: > 100 µM
- TGI [5]: > 100 µM
- TGI [6]: > 100 µM
- TGI [7]: > 100 µM
- TGI [8]: > 100 µM
- TGI [9]: > 100 µM
- TGI [10]: > 100 µM
- TGI [11]: > 100 µM
- TGI [12]: > 100 µM
- TGI [13]: > 100 µM
- TGI [14]: > 100 µM
- TGI [15]: > 100 µM
- TGI [16]: > 100 µM
- TGI [17]: > 100 µM
- TGI [18]: > 100 µM
- TGI [19]: > 100 µM
- TGI [20]: > 100 µM

SMILES: CC1CC(N)=Nc2ccccc2N1 (stereo unspecified)
- TGI [1]: > 100 µM
- TGI [2]: > 100 µM
- TGI [3]: > 100 µM
- TGI [4]: > 100 µM
- TGI [5]: > 100 µM
- TGI [6]: > 100 µM
- TGI [7]: > 100 µM
- TGI [8]: > 100 µM
- TGI [9]: > 100 µM
- TGI [10]: > 100 µM
- TGI [11]: > 100 µM
- TGI [12]: > 100 µM
- TGI [13]: > 100 µM
- TGI [14]: > 100 µM
- TGI [15]: > 100 µM
- TGI [16]: > 100 µM
- TGI [18]: > 100 µM
- TGI [19]: > 100 µM
- TGI [20]: > 100 µM

SMILES: COc1cc(-c2cc(=O)c3c(OC)c(OC)c(OC)c(OC)c3o2)c(OC)c(OC)c1OC
- TGI [1]: > 100 µM
- TGI [2]: 56.8 µM
- TGI [3]: > 100 µM
- TGI [4]: > 100 µM
- TGI [5]: > 100 µM
- TGI [6]: > 100 µM
- TGI [7]: > 100 µM
- TGI [8]: > 100 µM
- TGI [9]: > 100 µM
- TGI [12]: > 100 µM
- TGI [13]: 50.1 µM
- TGI [14]: > 100 µM
- TGI [15]: > 100 µM
- TGI [16]: > 100 µM
- TGI [17]: > 100 µM
- TGI [18]: > 100 µM
- TGI [19]: > 100 µM
- TGI [20]: > 100 µM

SMILES: O=C(CCCn1ccnc1[N+](=O)[O-])NCCn1cncc1[N+](=O)[O-]
- TGI [1]: > 100 µM
- TGI [2]: > 100 µM
- TGI [3]: > 100 µM
- TGI [4]: > 100 µM
- TGI [5]: > 100 µM
- TGI [6]: > 100 µM
- TGI [7]: > 100 µM
- TGI [8]: > 100 µM
- TGI [9]: > 100 µM
- TGI [10]: > 100 µM
- TGI [11]: > 100 µM
- TGI [12]: > 100 µM
- TGI [13]: > 100 µM
- TGI [14]: > 100 µM
- TGI [15]: > 100 µM
- TGI [16]: > 100 µM
- TGI [17]: > 100 µM
- TGI [18]: > 100 µM
- TGI [19]: > 100 µM
- TGI [20]: > 100 µM

SMILES: COc1ccc(C2CC(=O)CC(c3ccc(OC)cc3)C23C(=O)NC(=O)NC3=O)cc1 (stereo unspecified)
- TGI [1]: > 100 µM
- TGI [2]: > 100 µM
- TGI [3]: 65.3 µM
- TGI [4]: > 100 µM
- TGI [5]: > 100 µM
- TGI [6]: 81 µM
- TGI [7]: 85 µM
- TGI [8]: 61.6 µM
- TGI [9]: 86.4 µM
- TGI [10]: 64.7 µM
- TGI [11]: 44.4 µM
- TGI [12]: > 100 µM
- TGI [13]: > 100 µM
- TGI [14]: > 100 µM
- TGI [15]: > 100 µM
- TGI [16]: > 100 µM
- TGI [17]: > 100 µM
- TGI [18]: 43.7 µM
- TGI [19]: 68 µM
- TGI [20]: 50.2 µM

SMILES: CN(c1ccc(Cl)cc1)S(=O)(=O)c1ccc([N+](=O)[O-])cc1
- TGI [1]: > 100 µM
- TGI [2]: > 100 µM
- TGI [3]: > 100 µM
- TGI [4]: > 100 µM
- TGI [5]: > 100 µM
- TGI [6]: > 100 µM
- TGI [7]: > 100 µM
- TGI [8]: > 100 µM
- TGI [9]: > 100 µM
- TGI [10]: > 100 µM
- TGI [11]: > 100 µM
- TGI [12]: > 100 µM
- TGI [13]: > 100 µM
- TGI [14]: > 100 µM
- TGI [15]: > 100 µM
- TGI [16]: > 100 µM
- TGI [17]: > 100 µM
- TGI [18]: > 100 µM
- TGI [19]: > 100 µM
- TGI [20]: > 100 µM

SMILES: O=C(NCCCCCCNC(=O)c1cccc2ccccc12)Nc1cccc2ccccc12
- TGI [1]: > 100 µM
- TGI [2]: > 100 µM
- TGI [3]: > 100 µM
- TGI [4]: > 100 µM
- TGI [5]: > 100 µM
- TGI [6]: > 100 µM
- TGI [7]: > 100 µM
- TGI [8]: > 100 µM
- TGI [9]: > 100 µM
- TGI [10]: > 100 µM
- TGI [11]: > 100 µM
- TGI [12]: > 100 µM
- TGI [13]: > 100 µM
- TGI [14]: > 100 µM
- TGI [15]: > 100 µM
- TGI [16]: > 100 µM
- TGI [17]: > 100 µM
- TGI [18]: > 100 µM
- TGI [19]: > 100 µM
- TGI [20]: > 100 µM

SMILES: CC(C)(C)c1cc(C(P(=O)(c2ccccc2)c2ccccc2)P(=O)(c2ccccc2)c2ccccc2)cc(C(C)(C)C)c1O
- TGI [1]: 7.23 µM
- TGI [2]: > 8.23 µM
- TGI [3]: 9.9 µM
- TGI [4]: 7.88 µM
- TGI [5]: > 10 µM
- TGI [6]: > 8.2 µM
- TGI [7]: 5.12 µM
- TGI [8]: 4.39 µM
- TGI [9]: 3.93 µM
- TGI [10]: 7.3 µM
- TGI [11]: 5.41 µM
- TGI [12]: > 10 µM
- TGI [13]: 7.67 µM
- TGI [14]: 7.09 µM
- TGI [15]: > 9.47 µM
- TGI [16]: 3.85 µM
- TGI [17]: 3.88 µM
- TGI [18]: 4.71 µM
- TGI [19]: 2.94 µM
- TGI [20]: > 9.23 µM
